Results: US7589075B2, “Use of an adenosine A3 receptor agonist for inhibition of viral replication” (Can-Fite Biopharma Ltd., priority 2001, dated 2009)

Columns and labels:
Assay type in all cases: cell-based
[1] = system: HIV-1 isolate SF162 in primary human fetal microglia; assay: p24 ELISA, HIV replication in SF162 infected microglia; details: Microglia/SF; for p24 pg/mL Day 5 after infection: HIV control 267.99; for p24 pg/mL Day 10 after infection: HIV control 209.18
Description: (§1) Purified primary human fetal astrocytes and microgial cells were prepared from 16 to 20 week old human fetal brain tissue by a modified procedure based on the methods of Cole and de Vellis^11, and Yong and Ante^13. Brain tissue was washed in ice-cold Hank's Balanced Salt Solution (HBSS) containing the antibiotics gentamycin and amphotericin B. Blood vessels and meninges were removed and the tissue was minced into small pieces. After mincing, the tissue was enzymatically dissociated by incubation in 0.05% trypsin and mechanically disrupted by passing several times over a 75 μm nylon mesh filter. The resulting single cell suspension was washed, pelleted and plated at a density of 2-10×10^6 cells per 162 cm^2 flask in DMEM:F12 containing 10% fetal calf serum, insulin, gentamycin, and L-glutamine. After 7-10 days of growth, microglial cells were isolated by placement on rotary shaker at 200 rpm in a 37° C. incubator overnight. The non-adherent cells were removed and allowed to attach to a new flask for 1 to 3 h. Following attachment, the cells were washed and refed with media containing 10% fetal calf serum, insulin, gentamycin, L-glutamine, and NI supplement. Astrocytes were subcultured from adherent cells in media containing 15% fetal calf serum, insulin, gentamycin, and L-glutamine and contaminating microglia were removed by repeated rotary shaking. Cultured astrocytic and microglial cells were plated at a density of 2.5×10^5 per well into 6 well plates for subsequent infection.
(§2) Brain derived primary HIV-1 isolates SF162 and JR-FL were cultured in human peripheral blood mononuclear cells (PBMC) essentially as described by Gartner and Popovic^12. PBMC were isolated from human buffy coat by fico gradient and plated at a density of 2.5×10^6 per ml in RPMI containing 10% fet calf serum and gentamycin. Cells were stimulated by the addition of 5 ug/ml phytohemagglutinin (PHA) for 48 h. After stimulation, cells were infected will either SF162 or JR-FL and cultured for 7 to 10 days until high titres of HIV-1 we detected in the supernatant by p24 ELISA assay. When viral production was optimal, the cells were pelleted, the supernatant containing HIV-1 was aliquoted and stored at −70° C. until use. P24 ELISA assay was performed on an aliquoted stock to determine the viral titre.
2.5×10^5 microglial or astrocytic cells were plated per well into 6-we plates. The next day, cells were washed and refed with fresh medium. 2×10^4 p2units of either SF 162 or JR-FL virus was added per well in a total of 1 ml of vir inoculum. In control experiments, the virus was not added. Cells were incubated with virus overnight at 37° C., washed extensively with PBS, and refed with […] fresh medium. […] 500 μl of medium were removed at the indicated times following infection and stored at −70° C. for later analysis. Each time medium was removed, a volume amount of fresh medium was added. In control experiments IB-MECA and Cl-IB-MECA were omitted.
ELISA assay to detect the HIV-1 viral core protein, p24, was performed of 50 μl of the collected supernatant utilizing the commercially available p24 ELISA Kit (NEN/Dupont) according to the manufacturer's instructions.

[2] = system: HIV-1 isolate JR-FL in primary human fetal astrocytes; assay: p24 ELISA, HIV replication in JR-FL infected astroglial cells; details: for p24 pg/mL Day 5: Astroglia/JR-FL, 0.01 (μM) every 24 hours, culture medium 5 days after HIV infection, HIV control 22.83; for amount of p24 protein in culture medium from HIV infected cells in comparison to untreated HIV controls: summary statement for Tables 1 to 3 (astroglia and microglia, JR-FL and SF162)
Description: as §1, §2
2.5×10^5 microglial or astrocytic cells were plated per well into 6-we plates. The next day, cells were washed and refed with fresh medium. 2×10^4 p2units of either SF 162 or JR-FL virus was added per well in a total of 1 ml of vir inoculum. In control experiments, the virus was not added. Cells were incubated with virus overnight at 37° C., washed extensively with PBS, and refed with […] fresh medium. Cultures were treated with IB-MECA or CI-IB-MECA at concentration of 0.01 μM every 24 hours. […]

[3] = system: HIV-1 isolate SF162 in primary human fetal astrocytes; assay: p24 ELISA, HIV replication in SF162 infected astroglia; details: Astroglia/SF-162; 0.01 (μM) every 24 hours; culture medium 5 days after infection; HIV control 313.38
Description: as §1, with “Following attachment, the cells were washed and refed with media containing 10% fetal calf serum, insulin, gentamycin, L-glutamine, and NI supplement. Astrocytes were subcultured from adherent cells in media containing 15% fetal calf serum, insulin, gentamycin, and L-glutamine and contaminating microglia were removed by repeated rotary shaking. Cultured astrocytic and microglial cells were plated at a density of 2.5×10^5 per well into 6 well plates for subsequent infection.” left out
Brain derived primary HIV-1 isolates SF162 and JR-FL were cultured in human peripheral blood mononuclear cells (PBMC) essentially as described by Gartner and Popovic^12. […] After stimulation, cells were infected will either SF162 or JR-FL and cultured for 7 to 10 days until high titres of HIV-1 we detected in the supernatant by p24 ELISA assay. […]

Q: Which results are given for `CNC(=O)[C@H]1O[C@@H](n2cnc3c(NCc4cccc(I)c4)nc(Cl)nc32)[C@H](O)[C@@H]1O` [Cl-IB-MECA]?
A: p24 pg/mL Day 5 after infection ([1]; 0.01 (μM)): 127.03 pg/mL; p24 pg/mL Day 10 after infection ([1]; 0.01 (μM)): 111.05 pg/mL; p24 pg/mL Day 5 after infection ([1]; 0.1): 10.81 pg/mL; p24 pg/mL Day 10 after infection ([1]; 0.1): 80.37 pg/mL; p24 pg/mL Day 5 [2]: 8.45 pg/mL; amount of p24 protein in culture medium from HIV infected cells in comparison to untreated HIV controls [2]: significantly reduced; p24 pg/mL Day 5 [3]: 288.77 pg/mL

Q: How did the “p24 pg/mL Day 5 after infection” value ([1]; 0.01 (μM)) turn out when `CNC(=O)[C@H]1O[C@@H](n2cnc3c(NCc4cccc(I)c4)ncnc32)[C@H](O)[C@@H]1O` [IB-MECA, 1-deoxy-1-{6-[({3-iodophenyl}methyl)amino]-9H-purine-9-yl}-N-methyl-β-D-ribofuranuron-amide] was run?
A: 81.33 pg/mL

Q: What about the “p24 pg/mL Day 10 after infection” value ([1]; 0.01 (μM)) of the same compound?
A: 62.79 pg/mL

Q: And the “p24 pg/mL Day 5 after infection” value ([1]; 0.1)?
A: 82.29 pg/mL

Q: What about the “p24 pg/mL Day 10 after infection” value ([1]; 0.1) of the same compound?
A: 54.80 pg/mL

Q: And the “p24 pg/mL Day 5” value [2]?
A: 3.02 pg/mL

Q: What about the “amount of p24 protein in culture medium from HIV infected cells in comparison to untreated HIV controls” value [2] of the same compound?
A: significantly reduced

Q: And the “p24 pg/mL Day 5” value [3]?
A: 137.58 pg/mL
